Target: T1, recombinant human KLK5 (Homo sapiens, UniProt Q9Y337)
T1 construct: purchased Novoprotein or R&D Systems C415 or 1108-SE
T1 sequence (Q9Y337 23-293): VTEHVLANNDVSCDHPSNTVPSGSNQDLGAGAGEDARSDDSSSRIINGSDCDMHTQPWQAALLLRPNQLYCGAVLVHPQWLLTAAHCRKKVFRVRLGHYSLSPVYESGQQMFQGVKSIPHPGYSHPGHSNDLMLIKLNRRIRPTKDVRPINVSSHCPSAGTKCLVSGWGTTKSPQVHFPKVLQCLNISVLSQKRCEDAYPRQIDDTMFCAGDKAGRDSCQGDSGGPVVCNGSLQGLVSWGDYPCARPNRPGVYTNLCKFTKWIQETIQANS
Assay: Kallikrein (KLK) 5 enzymatic assay (Boc-VPR-AMC fluorogenic substrate)
Assay type: biochemical
Conditions: recombinant human KLK5 0.1 μg/well, Boc-VPR-AMC 100 μM, pH 7.5, room temperature, 1% DMSO; tested a minimum of three times
Outline: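 Recombinant human KLK5 (0.1 μg/well) was preincubated with compound at room temperature in 0.1 M NaH2PO4, pH 7.5, 1% DMSO, then started with 100 μM Boc-VPR-AMC. The rate was followed at 380/460 nm, and IC50 came from percent inhibition relative to enzyme alone, with at least three runs.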

SMILES	IC50
COc1c(C(=N)N)cccc1-c1ccc2c(c1)c(COc1ccccc1CC(=O)O)nn2C(C)C [Compound 84f, 2-(2-((5-(3-carbamimidoyl-2-methoxyphenyl)-1-isopropyl-1H-indazol-3-yl)methoxy)phenyl)acetic acid]	< 1000 nM
CCC(=O)N1CC(n2nc3ccc(-c4ccc5ccnc(N)c5c4)cc3c2COc2ccccc2CC(=O)O)C1 [Compound 128c, 2-(2-((5-(1-aminoisoquinolin-7-yl)-2-(1-propionylazetidin-3-yl)-2H-indazol-3-yl)methoxy)phenyl)acetic acid]	1000 to 10000 nM
COc1cc(-c2ccc3ccnc(N)c3c2)cc2c(COc3cc(C)ccc3CC(=O)O)coc12 [Compound 230d, 2-(2-((5-(1-aminoisoquinolin-7-yl)-7-methoxybenzofuran-3-yl)methoxy)-4-methylphenyl)acetic acid]	1000 to 10000 nM
COC(=O)N1CCC2(CC1)C[C@@H](Oc1ccccc1CC(=O)O)c1cc(-c3cccc4c(N)nccc34)ccc12 [Compound 398d, (R)-2-(2-((5-(1-aminoisoquinolin-5-yl)-1′-(methoxycarbonyl)-2,3-dihydrospiro[indene-1,4′-piperidin]-3-yl)oxy)phenyl)acetic acid]	< 1000 nM
COc1c(C(=N)N)cccc1-c1ccc2c(c1)c(COc1ccccc1CC(=O)O)nn2C1CCCC1 [Compound 263d, 2-(2-((5-(3-carbamimidoyl-2-methoxyphenyl)-1-cyclopentyl-1H-indazol-3-yl)methoxy)phenyl)acetic acid]	< 1000 nM
COc1cc2nn(C3CCC3)c(COc3ccccc3CC(=O)O)c2cc1-c1cccc(C(=N)N)c1 [Compound 271c, 2-(2-((5-(3-carbamimidoylphenyl)-2-cyclobutyl-6-methoxy-2H-indazol-3-yl)methoxy)phenyl)acetic acid]	1000 to 10000 nM
Nc1nccc2ccc(-c3ccc4nn(C5CN(CCO)C5)c(COc5ccccc5CC(=O)O)c4c3)cc12 [Compound 119h, 2-(2-((5-(1-aminoisoquinolin-7-yl)-2-(1-(2-hydroxyethyl)azetidin-3-yl)-2H-indazol-3-yl)methoxy)phenyl)acetic acid]	1000 to 10000 nM
CC(C)COC(=O)N1CCC2(CC1)CC(Oc1ccccc1CC(=O)O)c1cc(-c3ccc4ccnc(N)c4c3)ccc12 (stereo not drawn) [Compound 389c, 2-(2-((5-(1-aminoisoquinolin-7-yl)-1′-(isobutoxycarbonyl)-2,3-dihydrospiro[indene-1,4′-piperidin]-3-yl)oxy)phenyl)acetic acid]	< 1000 nM
Nc1nccc2c(-c3ccc4c(c3)[C@@H](Oc3ccccc3CC(=O)O)C[C@@H]4N3CCCCC3)cccc12 [Compound 459g, (−)-trans 2-(2-(((1S,3S)-6-(1-aminoisoquinolin-5-yl)-3-(piperidin-1-yl)-2,3-dihydro-1H-inden-1-yl)oxy)phenyl)acetic acid]	1000 to 10000 nM
Nc1nccc2c(-c3ccc4c(c3)C(Oc3ccccc3CC(=O)O)CC43CCCC3)cccc12 (stereo not drawn) [Compound 354f, 2-(2-((5′-(1-aminoisoquinolin-5-yl)-2′,3′-dihydrospiro[cyclopentane-1,1′-inden]-3′-yl)oxy)phenyl)acetic acid]	< 1000 nM
CCC(=O)N1CCC2(CC1)CC(Oc1cccc(C)c1CC(=O)O)c1cc(-c3cccc4c(N)nccc34)ccc12 (stereo not drawn) [Compound 387c, 2-(2-((5-(1-aminoisoquinolin-5-yl)-1′-propionyl-2,3-dihydrospiro[indene-1,4′-piperidin]-3-yl)oxy)-6-methylphenyl)acetic acid]	< 1000 nM
CCOC(=O)N1CCC2(CC1)CC(Oc1ccccc1CC(=O)O)c1cc(-c3cccc4c(N)nccc34)ccc12 (stereo not drawn) [Compound 372b, 2-(2-((5-(1-aminoisoquinolin-5-yl)-1′-(ethoxycarbonyl)-2,3-dihydrospiro[indene-1,4′-piperidin]-3-yl)oxy)phenyl)acetic acid]	< 1000 nM
Nc1nccc2ccc(-c3ccc4c(c3)c(COc3cccc(OC(F)(F)F)c3CC(=O)O)nn4C3CCOC3)cc12 (stereo not drawn) [Compound 288d, 2-(2-((5-(1-aminoisoquinolin-7-yl)-1-(tetrahydrofuran-3-yl)-1H-indazol-3-yl)methoxy)-6-(trifluoromethoxy)phenyl)acetic acid]	< 1000 nM
Nc1nccc2c(-c3cc(NCC4CC4)c4c(c3)c(COc3ccccc3CC(=O)O)nn4C3CCCCO3)cccc12 (stereo not drawn) [Compound 107d, 2-(2-((5-(1-aminoisoquinolin-5-yl)-7-((cyclopropylmethyl)amino)-1-(tetrahydro-2H-pyran-2-yl)-1H-indazol-3-yl)methoxy)phenyl)acetic acid]	< 1000 nM

Next, values leading:

IC50	SMILES
< 1000 nM	CCC(=O)N1CCC2(CC1)CC(Oc1ccccc1CC(=O)O)c1cc(-c3cccc4c(N)nccc34)ccc12 (stereo not drawn) [Compound 385c, 2-(2-((5-(1-aminoisoquinolin-5-yl)-1′-propionyl-2,3-dihydrospiro[indene-1,4′-piperidin]-3-yl)oxy)phenyl)acetic acid]
< 1000 nM	Cn1nc(COc2ccccc2CC(=O)O)c2cc(-c3ccc4ccnc(N)c4c3)ccc21 [Compound 57b, 2-(2-((5-(1-aminoisoquinolin-7-yl)-1-methyl-1H-indazol-3-yl)methoxy)phenyl)acetic acid]
< 1000 nM	Nc1nccc2c(-c3ccc4[nH]nc(COc5ccccc5CC(=O)O)c4c3)cccc12 [Compound 97a, 2-(2-((5-(1-aminoisoquinolin-5-yl)-1H-indazol-3-yl)methoxy)phenyl)acetic acid]
> 10000 nM	Nc1nccc2ccc(-c3ccc4nn(C5CCC5)c(COc5cc(C(F)(F)F)ccc5CC(=O)O)c4c3)cc12 [Compound 151d, 2-(2-((5-(1-aminoisoquinolin-7-yl)-2-cyclobutyl-2H-indazol-3-yl)methoxy)-4-(trifluoromethyl)phenyl)acetic acid]
< 1000 nM	COC(=O)N1CCC2(CC1)CC(Oc1cc(C)ccc1CC(=O)O)c1cc(-c3cccc4c(N)nccc34)ccc12 (stereo not drawn) [Compound 413b, 2-(2-((5-(1-aminoisoquinolin-5-yl)-1′-(methoxycarbonyl)-2,3-dihydrospiro[indene-1,4′-piperidin]-3-yl)oxy)-4-methylphenyl)acetic acid]
< 1000 nM	CC(C)n1nc(COc2ccccc2CC(=O)O)c2cc(-c3cccc(C(=N)N)c3O)ccc21 [Compound 262e, 2-(2-((5-(3-carbamimidoyl-2-hydroxyphenyl)-1-isopropyl-1H-indazol-3-yl)methoxy)phenyl)acetic acid]
1000 to 10000 nM	COCCN1CC[C@H](n2nc3ccc(-c4cccc5c(N)nccc45)cc3c2COc2ccccc2CC(=O)O)C1 [Compound 117c, (S)-2-(2-((5-(1-aminoisoquinolin-5-yl)-2-(1-(2-methoxyethyl)pyrrolidin-3-yl)-2H-indazol-3-yl)methoxy)phenyl)acetic acid]
< 1000 nM	COC(=O)N1CCC2(CC1)CC(Oc1cc(C#N)ccc1CC(=O)O)c1cc(-c3ccc4ccnc(N)c4c3)ccc12 (stereo not drawn) [Compound 410d, 2-(2-((5-(1-aminoisoquinolin-7-yl)-1′-(methoxycarbonyl)-2,3-dihydrospiro[indene-1,4′-piperidin]-3-yl)oxy)-4-cyanophenyl)acetic acid]
< 1000 nM	CCOC(=O)N1CC[C@@H](n2nc(COc3cccc(C)c3CC(=O)O)c3cc(-c4cccc5c(N)nccc45)ccc32)C1 [Compound 341e, (R)-2-(2-((5-(1-aminoisoquinolin-5-yl)-1-(1-(ethoxycarbonyl)pyrrolidin-3-yl)-1H-indazol-3-yl)methoxy)-6-methylphenyl)acetic acid]
1000 to 10000 nM	Nc1nccc2ccc(-c3ccc4nn([C@H]5CCN(CC(=O)O)C5)c(COc5ccccc5CC(=O)O)c4c3)cc12 [Compound 116b, (S)-2-(2-((5-(1-aminoisoquinolin-7-yl)-2-(1-(carboxymethyl)pyrrolidin-3-yl)-2H-indazol-3-yl)methoxy)phenyl)acetic acid]
< 1000 nM	Nc1nccc2c(-c3ccc4c(c3)c(COc3ccccc3CC(=O)O)nn4CC3CCOC3)cccc12 (stereo not drawn) [Compound 88h, 2-(2-((5-(1-aminoisoquinolin-5-yl)-1-((tetrahydrofuran-3-yl)methyl)-1H-indazol-3-yl)methoxy)phenyl)acetic acid]
< 1000 nM	COc1c(-c2ccc3c(c2)c(COc2ccccc2CC(=O)O)nn3C(C)C)ccnc1CN [Compound 326d, 2-(2-((5-(2-(aminomethyl)-3-methoxypyridin-4-yl)-1-isopropyl-1H-indazol-3-yl)methoxy)phenyl)acetic acid]
< 1000 nM	Cn1nc(COc2ccccc2CC(=O)O)c2cc(-c3ccc4ccnc(N)c4c3)cnc21 [Compound 196e, 2-(2-((5-(1-aminoisoquinolin-7-yl)-1-methyl-1H-pyrazolo[3,4-b]pyridin-3-yl)methoxy)phenyl)acetic acid]
< 1000 nM	Cc1cccc(OC2CC3(CCN(S(C)(=O)=O)CC3)c3ccc(-c4ccc5ccnc(N)c5c4)cc32)c1CC(=O)O (stereo not drawn) [Compound 448c, 2-(2-((5-(1-aminoisoquinolin-7-yl)-1′-(methylsulfonyl)-2,3-dihydrospiro[indene-1,4′-piperidin]-3-yl)oxy)-6-methylphenyl)acetic acid]
< 1000 nM	CCCn1nc(COc2ccccc2CC(=O)O)c2cc(-c3cccc4c(N)nccc34)ccc21 [Compound 187b, 2-(2-((5-(1-aminoisoquinolin-5-yl)-1-propyl-1H-indazol-3-yl)methoxy)phenyl)acetic acid]
> 10000 nM	Nc1nccc2c(-c3cc4c(COc5ccccc5CC(=O)O)cccc4o3)cccc12 [Compound 232b, 2-(2-((2-(1-aminoisoquinolin-5-yl)benzofuran-4-yl)methoxy)phenyl)acetic acid]
